The experiment has as its system primary cultures of rat hippocampal neurons. Briefly: In vitro hippocampal spine density. Type of experiment: cell-based. As to conditions: chronic treatment (3 doses of 10^−5M), days 14, 17 and 20; FIG. 1. From the text:
In Vitro Hippocampal Spine Density
Dendritic spines are a complex, distinct cellular compartment that protrude from neuronal processes, and act as a source of synaptic contact vital for plasticity, signalling and neuronal integration. Hippocampal spine density increases in the rat brain after learning of an associative task, thereby acting as a substrate for the new memories. Drugs that enhance actin reorganisation in dendritic spines, a requirement for stabilisation of memory, have been proposed for the treatment of memory disorders.
Hippocampi from E18 rat pups were dissected into cold Hank's Basic Salt Solution, rinsed three times and incubated in 5 ml of 0.12% w/v trypsin and 40 μg/ml DNAse (Sigma-Aldrich, St. Louis, USA) for 20 minutes at 37° C. Clumped cells were triturated for one minute with a sterile 1 ml pipette. […] Cell density in a 1/10 dilution was measured using a haemocytometer. […]
For immunohistochemical staining of spines, coverslips were removed from plates and washed in PBS, then incubated in PBSX for 15 minutes to permeabilise membranes. […] Spines highlighted by drebrin immunostaining were counted in Image J. Single neurites were identified and all spines along a fifty micron segment were counted. […]

Structures are written as SMILES.

Regarding `CC(=O)C1=C(C)OC(N)=C(C#N)C1c1ccc(C(=O)O)cc1.N` (stereo not shown) [Test Compound 1], the dendritic spine densities entry is given as “statistically significant increases”.
